Results taken from article PMC3111596 (Biochemistry, 2011).

Target: N-terminal truncated LSD1 (171–852 aa) (Homo sapiens, UniProt O60341)
Assay: LSD1-folate binding by back-scattering interferometry
Conditions: N-terminal truncated LSD1 vs full-size LSD1

Affinity of truncated LSD1 compared with full-size protein: same affinity as the full-size protein
Structure (SMILES): Nc1nc2c(c(=O)[nH]1)NC(CNc1ccc(C(=O)N[C@@H](CCC(=O)N[C@@H](CCC(=O)N[C@@H](CCC(=O)N[C@@H](CCC(=O)N[C@@H](CCC(=O)O)C(=O)O)C(=O)O)C(=O)O)C(=O)O)C(=O)O)cc1)CN2 (mixture of isomers) [(6R,S)-THF-Glu5, Tetrahydrofolate pentaglutamate]
